As usually defined, the MIC is the lowest concentration found to suppress growth. High values mean a need for much substance, low ones inhibition by little substance. As usually defined, the melting point is the temperature, or range, at which the solid turns liquid.

Values after ≈ are worked out from the molar mass of the structure shown.

These results are taken from patent publication US6653330B2, “Amide-type triazole compounds” (Sankyo Company, Limited, priority 2000, dated 2003).

Data set [1] relates to Cryptococcus neoformans TIMM 1855. The experiment in a line: In vitro antifungal activity (MIC), Cryptococcus neoformans. The note with it: TIMM1855, MIC = lowest concentration causing at least 80% growth inhibition (IC80), Yeast Nitrogen Base pH 7.0, 35° C., trans isomers. It is filed as cell-based. On the procedure: (§1) The antifungal activities of test compounds were assessed according to their minimum inhibitory concentrations (MICs) which were measured by the methods described below.
(§2) Liquid medium: RPMI1640 medium which was buffered to pH 7.0 (without an indicator) with 0.165M 3-(morpholino)propanesulfonic acid was used for Candida albicans and Aspergillus fumigatus. Yeast Nitrogen Base medium which was buffered to pH 7.0 with 0.165M 3-(morpholino)propanesulfonic acid was used for Cryptococcus neoformans.
(§3) Preparation of inoculation fungi solution: Each test fungi solution of Candida albicans and Cryptococcus neoformans was incubated on Sabouraud agar medium at 35° C. for 48 hours. About five colonies of the test fungi having 1 mm diameter were suspended in physiological saline and the transmittance of the suspension was adjusted to Macfarland 0.5 degree. A one thousand-fold diluted suspension of the resulting suspension was prepared by dilution with the liquid medium described above and was used for Candida albicans. A one hundred-fold diluted suspension of the resulting suspension was prepared by dilution with the liquid medium described above and was used for Cryptococcus neoformans. Aspergillus fumigatus was incubated on Potato dextrose agar at 35° C. for five days. Spores on the agar medium were collected with physiological saline containing 0.05% Tween 80 and the number of spores was adjusted to 2.5×10^7/ml using a blood cell counter. A one thousand-fold diluted suspension was prepared by dilution of the resulting spore suspension with the liquid medium described above and was used for Aspergillus fumigatus.
(§4) Preparation of test compound solution: Each test compound was dissolved in 100% dimethyl sulfoxide and serial two-fold dilutions of each compound were prepared with 100% dimethyl sulfoxide. The final concentration of dimethyl sulfoxide was adjusted to not greater than 1% by dilution with each liquid medium described above respectively.
(§5) Assessment method: Each diluted test compound (100 μl), the inoculation fungi solution (80 μl) and Alamar blue solution (20 μl) was sequentially added to each of wells of microtiter plate having 96 wells. The resulting mixture was incubated at 35° C. (30° C. for Aspergillus fumigatus). When the light absorbance at 570 nm of growth control exceeded 0.6, the MICs were determined. The MICs were defined as the lowest compound concentrations causing at least 80% growth inhibition (IC80) compared with the control to which the test compound was not added.

For data set [2], the system named is Aspergillus fumigatus SANK 10569. The experiment in a line: In vitro antifungal activity (MIC), Aspergillus fumigatus. The class given is cell-based. The following applies: SANK10569, MIC = lowest concentration causing at least 80% growth inhibition (IC80), RPMI1640 pH 7.0, 30° C., trans isomers. On the procedure: as §1, §2, §3, §4, §5
The test system of data set [3] is Candida albicans SANK 51486. Briefly: In vitro antifungal activity (MIC), Candida albicans. It is filed as cell-based. The note with it: SANK51486, MIC = lowest concentration causing at least 80% growth inhibition (IC80), RPMI1640 pH 7.0, 35° C., trans isomers. The protocol:
as §1, §2, §3, §4, §5

The molecule `C[C@@H](S[C@H]1CO[C@H](c2cccc(C(=O)Nc3ccc(Cl)cc3)c2)OC1)[C@](O)(Cn1cncn1)c1ccc(F)cc1F` [Example 9, 4′-Chloro-3-[trans-5-[[(1R,2R)-2-(2,4-difluorophenyl)-2-hydroxy-1-methyl-3-(1H-1,2,4-triazol-1-yl)propyl]thio]-1,3-dioxan-2-yl]benzanilide] came in with a melting point of 90 °C. In data set [1], this molecule registered a minimum inhibitory concentration (MIC) of 0.25 µg/mL (≈ 0.416 µM). The molecule further returned an MIC in data set [2] of 2 µg/mL (≈ 3.33 µM). In data set [3], this molecule gave an MIC of at most 0.008 µg/mL.
For `C[C@@H](S[C@H]1CO[C@H](c2ccc(C(=O)NCc3ccc(C#N)cc3)cc2)OC1)[C@](O)(Cn1cncn1)c1ccc(F)cc1F` [Example 26, N-(4-Cyanobenzyl)-4-[trans-5-[[(1R,2R)-2-(2,4-difluorophenyl)-2-hydroxy-1-methyl-3-(1H-1,2,4-triazol-1-yl)propyl]thio]-1,3-dioxan-2-yl]benzamide], in that order: 188 °C, 0.25 µg/mL (≈ 0.413 µM), 0.25 µg/mL (≈ 0.413 µM) and 0.016 µg/mL (≈ 0.0264 µM).
Consider `C[C@@H](SC1COC(c2ccccc2)OC1)[C@](O)(Cn1cncn1)c1ccc(F)cc1F` (some centres unmarked) [Comparative compound (A), reference compound], for which the MIC worked out at 0.25 µg/mL (≈ 0.559 µM) in data set [1], 4 µg/mL (≈ 8.94 µM) in data set [2] and 0.063 µg/mL (≈ 0.141 µM) in data set [3].
`C[C@@H](S[C@H]1CO[C@H](c2ccc(C(=O)Nc3ccc(O)cc3)cc2)OC1)[C@](O)(Cn1cncn1)c1ccc(F)cc1F` [Example 23, 4-[trans-5-[[(1R,2R)-2-(2,4-Difluorophenyl)-2-hydroxy-1-methyl-3-(1H-1,2,4-triazol-1-yl)propyl]thio]-1,3-dioxan-2-yl]-4′-hydroxybenzanilide]: the melting point was determined as 254 °C. The molecule also gave an MIC in data set [1] of 0.25 µg/mL (≈ 0.429 µM). The MIC in data set [2] came to 0.5 µg/mL (≈ 0.858 µM). In data set [3], this molecule displayed an MIC of 0.016 µg/mL (≈ 0.0275 µM).
For `C[C@@H](S[C@H]1CO[C@H](c2ccc3cc(C(=O)Nc4ccc(C#N)cc4)ccc3c2)OC1)[C@](O)(Cn1cncn1)c1ccc(F)cc1F` [Example 3, 4′-Cyano-6-[trans-5-[[(1R,2R)-2-(2,4-difluorophenyl)-2-hydroxy-1-methyl-3-(1H-1,2,4-triazol-1-yl)propyl]thio]-1,3-dioxan-2-yl]-2-naphthoanilide], in that order: 114 °C, 0.063 µg/mL (≈ 0.0982 µM), 0.063 µg/mL (≈ 0.0982 µM) and at most 0.008 µg/mL.
In the same order, the values of `C[C@@H](S[C@H]1CO[C@H](c2ccc(C(=O)Nc3ccc(OCC(F)(F)C(F)F)cc3)cc2)OC1)[C@](O)(Cn1cncn1)c1ccc(F)cc1F` [Example 1, 4-[trans-5-[[(1R,2R)-2-(2,4-Difluorophenyl)-2-hydroxy-1-methyl-3-(1H-1,2,4-triazol-1-yl)propyl]thio]-1,3-dioxan-2-yl]-4′-(2,2,3,3-tetrafluoropropoxy)benzanilide] are 156 °C, 0.063 µg/mL (≈ 0.0904 µM), 0.125 µg/mL (≈ 0.179 µM) and 0.016 µg/mL (≈ 0.023 µM).
